Laboratory results taken from patent publication US6875760B2 (Novo Nordisk A/S, priority 1999, dated 2005).

Target: T1, cloned human glucagon receptor (Homo sapiens, UniProt P47871)
T1 construct: expressed in transfected cells; plasma membrane preparation
Assay: Glucagon Binding Assay (II)
Conditions: plasma membranes of BHK cells expressing the receptor; read-out: Glu Bd Assay (II) IC50
Method: Binding of compounds to the glucagon receptor was determined in a competition binding assay using the cloned human glucagon receptor.
The receptor inserted in the pLJ6′ expression vector using EcoRI/SSt1 restriction sites (Lok et al.) was expressed in a baby hamster kidney cell line (A3 BHK 570-25).
The homogenate was resuspended and centrifuged again. The final precipitate containing the plasma membranes was suspended in buffer and stored at −80° C. until use.
Binding assays were carried out in duplicate in polypropylene tubes or microtiter plates. The buffer used in this assay was 50 mM HEPES pH 7.4 containing 5 mM EGTA, 5 mM MgCl2 and 0.005% Tween 20. Sample (glucagon (Bachem CA) or test compounds) was added to each tube or well. Tracer (˜25.000 cpm) was diluted in buffer and was added to each tube or well. 0.5 mg freshly thawed plasma membrane protein diluted in buffer was then added in aliquots to each tube or well. Tubes or plates were incubated at 37° C. for 1 hour. Non-specific binding was determined with 10^−7 M of glucagon. Bound tracer and unbound tracer were then separated by vacuum filtration. The tubes or wells were washed twice with 0.01% Triton X-100 buffer. Scintillation fluid was added to the plates and radioactivity was quantified using a scintillation counter.

T1 sequence (P47871 26-477): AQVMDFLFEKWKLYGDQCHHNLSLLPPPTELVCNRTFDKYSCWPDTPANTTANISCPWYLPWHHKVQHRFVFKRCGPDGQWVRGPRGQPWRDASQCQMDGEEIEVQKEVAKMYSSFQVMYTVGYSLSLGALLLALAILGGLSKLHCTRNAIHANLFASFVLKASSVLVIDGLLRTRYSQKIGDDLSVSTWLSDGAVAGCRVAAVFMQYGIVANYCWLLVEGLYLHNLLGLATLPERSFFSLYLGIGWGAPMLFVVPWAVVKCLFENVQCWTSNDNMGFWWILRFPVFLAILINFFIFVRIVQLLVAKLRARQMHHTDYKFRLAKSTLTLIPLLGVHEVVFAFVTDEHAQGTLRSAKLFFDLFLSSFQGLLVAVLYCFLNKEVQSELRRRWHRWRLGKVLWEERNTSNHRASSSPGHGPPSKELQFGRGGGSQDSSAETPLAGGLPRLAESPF

SMILES | IC50
O=C(O)CCNC(=O)c1ccc(CN(CCc2ccc(Cl)cc2)C(=O)Nc2ccc(OCc3ccccc3)cc2)cc1 | 400 nM
O=C(Nc1nn[nH]n1)c1ccc(CN(C(=O)Nc2cccc(I)c2)c2ccc(C3=CCCCC3)cc2)cc1 | 26 nM
CCCCc1ccc(NC(=O)N(Cc2ccc(C(=O)NCCC(=O)O)cc2)C2Cc3ccccc3C2)cc1 [Example 112, 3-{4-[1-(2,3-Dihydro-1H-inden-2-yl)-3-(4-butylphenyl)ureidomethyl]benzoylamino)propionic acid] | 220 nM

Results, then the compound that gave them:

IC50 | SMILES
726 nM | C[C@H](NC(=O)N(Cc1ccc(C(=O)NCCC(=O)O)cc1)c1ccc(C2CCCCC2)cc1)c1ccccc1 [Example 609, 3-{4-[1-(4-Cyclohexylphenyl)-3-((1S)-1-phenylethyl)ureidomethyl]benzoylamino}propionic acid]
153 nM | O=C(O)CCNC(=O)c1ccc(CN(C(=O)NCc2cc(Cl)cc(Cl)c2)c2ccc(C3CCCCC3)cc2)cc1 [Example 395, 3-{4-[1-(4-Cyclohexylphenyl)-3-(3,5-dichlorobenzyl)ureidomethyl]benzoylamino}propionic acid]
322 nM | O=C(Nc1nn[nH]n1)c1ccc(CN(Cc2cccc(Cl)c2)c2ccc(C3CCCCC3)cc2)cc1 [Example 585, 4-{[(3-Chlorobenzyl)-(4-cyclohexylphenyl)amino]methyl}-N-(2H-tetrazol-5-yl)benzamide]
437 nM | CCOC(=O)C(C)(C)C1CCC(N(Cc2ccc(C(=O)NCCC(=O)O)cc2)C(=O)Nc2ccc(OC(F)(F)F)cc2)CC1 (centres unmarked) [Example 611, 2-{4-[1-[4-(2-Carboxyethylcarbamoyl)benzyl]-3-(4-trifluoromethoxyphenyl)ureido]cyclohexyl}-2-methylpropionic acid ethyl ester]
7 nM | N#Cc1ccc(NC(=O)N(Cc2ccc(C(=O)Nc3nn[nH]n3)cc2)c2ccc(C3CCCCC3)cc2)cc1C(F)(F)F [Example 597, 4-[1-(4-Cyclohexylphenyl)-3-(4-cyano-3-trifluoromethylphenyl)ureidomethyl]-N-(2H-tetrazol-5-yl)benzamide]

Same assay, conditions: screened at 1 μM; library compounds; read-out: displacement of the glucagon tracer when screened at 1 μM concentration in the glucagon binding assay II

inhibition at 1 µM | SMILES
> 50% | CC(C)(C)C1CCC(N(Cc2ccc(C(=O)NCCC(=O)O)cc2)C(=O)Nc2ccc(Br)cc2)CC1 (centres unmarked) [Example 133, 3-{4-[3-(4-Bromophenyl)-1-(4-tert-butylcyclohexyl)ureidomethyl]benzoylamino)propionic acid]
> 50% | CC1(C)C2CCC(CN(Cc3ccc(C(=O)NCCC(=O)O)cc3)C(=O)Nc3cccc(SC(F)(F)F)c3)C1C2 (centres unmarked) [Example 204, 3-{4-[1-(6,6-Dimethylbicyclo[3.1.1]hept-2-ylmethyl)-3-(3-trifluoromethylsulfanylphenyl)ureidomethyl]benzoylamino}propionic acid]
> 50% | O=C(O)CCNC(=O)c1ccc(CN(Cc2ccccc2Cl)CC(c2ccccc2)c2ccccc2)cc1 [Example 143, 3-(4-{[(2,2-Diphenylethyl)-(2-chlorobenzyl)amino]methyl}benzoylamino)propionic acid]
> 50% | CC(C)(C)C1CCC(N(Cc2ccc(C(=O)Nc3ncnc4[nH]ncc34)cc2)C(=O)Nc2ccc(OC(F)(F)F)cc2)CC1 (centres unmarked) [Example 165, 4-[1-(4-tert-Butylcyclohexyl)-3-(4-trifluoromethoxyphenyl)ureidomethyl]-N-(1H-pyrazolo[3,4-d]pyrimidin-4-yl)benzamide]
> 50% | O=C(O)CCNC(=O)c1ccc(CN(C(=O)Nc2ccc(Cl)c(C(F)(F)F)c2)C2C[C@H]2c2ccccc2)cc1 (stereo in doubt) [Example 188, 3-{4-[3-(4-Chloro-3-trifluoromethylphenyl)-1-(2-phenylcyclopropyl)ureidomethyl]benzoylamino}propionic acid]

SMILES | inhibition at 1 µM
CCCCOc1ccc(NC(=O)N(Cc2ccc(C(=O)NCCC(=O)O)s2)Cc2ccccc2OC(F)(F)F)cc1 [Example 125, 3-{5-[1-(2-Trifluoromethoxybenzyl)-3-(4-butoxyphenyl)ureidomethyl]thiophene-2-carbonylamino)propionic acid] | > 50%
